For orientation: viability means a read-out of living cells in per cent, often relative to untreated cells.

Results on two compounds are retold here after PMC6072878, “Brasilianoids A–F, New Meroterpenoids From the Sponge-Associated Fungus Penicillium brasilianum” (Frontiers in Chemistry, 2018).

Series [1] deals with NO production in LPS-induced RAW 264.7 macrophages. As to the kind of experiment: Inhibition of LPS induced NO production in RAW264.7 macrophages (Griess reagent). The format is cell-based, mouse. Here is the method:
All compounds were assayed by measuring the inhibitory effects on NO production induced by LPS in mouse macrophage RAW 264.7 cells. The RAW 264.7 cells were seeded in each well of a 96-well plate at a concentration of 5 × 10^5 cells/ml in DMEM medium containing 10% fetal bovine serum, 2 mmol/l glutamine, 100 U/ml penicillin, and 100 μg/ml streptomycin. After incubation at 37°C in a humidified atmosphere of 5% CO2 air for 12 h, cells were treated with LPS (1 μg/ml) and compounds ([…], and compound was dissolved in DMSO to dilute until the final DMSO concentration <0.1%, v/v), then incubation for 24 h at 37°C. NO production was determined by measuring the quantity of nitrite in the culture medium by the Griess reagent. Aminoguanidine was selected as a positive control. A 50 μl of the supernatant of culture medium was mixed with 100 μl of the Griess reagent. Using nitrite to generate a standard curve, nitrite production was measured by a microplate reader at 540 nm. Cell viability was examined by the MTT method (Wu et al., [2016]). The compounds with inhibitory rate more than 50% at a dose of 50 μg/ml were further detected in the gradient concentrations to calculate IC50 values. […]
(§1) 7. Assay for inhibition toward nitric oxide production in RAW264.7 macrophages The experiment was conducted according to a literature procedure.1 Murine monocytic RAW264.7 cells grown in 96-well cell culture plates (2 × 10^5 cells/well) and pretreated with serial concentrations of the compounds 1‒8 for 30 min, followed by stimulation with LPS (1 μg/mL) under a humidified atmosphere with 5% CO2 at 37°C. After 24 h, the NO production of the supernatant was determined by adding the 100 μL of Griess reagent. Subsequently, the MTT
(§2) [3-(4,5-dimethylthiazol-2-yl)-2,5-diphenyltetrazolium bromide] reduction2 was used to evaluate the cell viability, and results were expressed as the mean value of triplicate determinations. The positive control was aminoguanidine.2 […]

The subject of series [2] is RAW264.7 macrophages. Put plainly: Cell viability of RAW264.7 macrophages (MTT method). The following applies: RAW264.7, MTT; Table 3; read-out: CC50 (μM) Cytotoxicity. The series is classed as cell-based, mouse. Here is the method: as §1, §2
In general terms: Tetrazolium assays rely on reduction of a dye to a coloured formazan, in cell work by metabolically active cells.

Series [3] relates to HBV virus in HepG2.2.15 cells. As to the kind of experiment: In vitro anti-HBV effects (HBV DNA, real time PCR). The format is cell-based. The note with it: 10 μM. As to the method: HepAD38 cells were cultured with DMEM in 48-well plate at 1 × 10^5 cells/well for 24 h, then treated with 10 μM of each compound for 72 h. After 4 days, the cells were washed with precooled PBS for 2 times. HBV progeny DNA of HepAD38 cells were extracted using QIAamp DNA Blood Mini kit (Biomiga) according to the manufacturer's instruction. Total DNA was reversely transcribed using PrimeScript RT reagent Kit (Takara, Dalian, China). PCR amplification was performed on an StepOne Plus real time PCR system (Applied Biosystems, Foster City, CA) using the SYBR Green Master Mix (Applied Biosystems, Foster City, CA). All experiments were performed in triplicate, and the relative levels of assayed HBV DNA were calculated with the delta–delta CT method using lamivudine as a positive control, and normalized to non-treated control. […]
8. Assay for in vitro anti-HBV effects
HepG2. 2. 15 cells were cultured with DMEM in 48-well plate at 1×10^5 cells/well for 24 h, then treated with 10 µM of compounds for 72 h. At d 4, these cells were washed 2 times with precooled PBS, and treated with 10 µM of compounds for 72 h.
HBV progeny DNA of HepG2. 2. 15 cells were extracted using QIAamp DNA Blood Mini kit (Biomiga) according to the manufacturer's instruction. Then total DNA was reverse transcribed using PrimeScript RT reagent Kit (Takara, Dalian, China). The primers were designed and synthesized by Takara, and the sequences of the primers […]
PCR amplification was performed on an StepOne Plus real time PCR system (Applied Biosystems, Foster City, CA) using the SYBR Green Master Mix (Applied Biosystems, Foster City, CA). All experiments were performed in triplicate, and the relative levels of assayed HBV DNA were calculated with the […]
delta‒delta CT method using lamivudine expressions as positive control, and normalized to non-treated control. […]
(Takara, Dalian, China). The primers were designed and synthesized by Takara, the […]
performed on an StepOne Plus real time PCR system (Applied Biosystems, Foster City, CA) using the SYBR Green Master Mix (Applied Biosystems, Foster City, CA). […]
For orientation: In qPCR the cycle at which signal appears reflects the starting amount.

Series [4] can be described thus: Cytotoxic activity toward tumor cell line U937. The series is classed as cell-based. The following applies: human, U937 tumor cells.
Series [5] has as its system filaggrin. Put plainly: Expression of filaggrin in HaCaT cells (qRT-PCR). The format is cell-based. The note with it: HaCaT cells, 20, 10, 5 μM, 72 h, dose dependent. As to the method: (§3) HaCaT cells were cultured with DMEM in 6-well plate at 1 × 10^5 cells/well for 24 h, then treated with 20, 10, 5 μM of compounds 1–7 for 72 h. Total RNA of HaCaT cells were extracted using RNA Miniprep kit (Biomiga) according to the manufacturer's instruction. Then total RNA was reverse transcribed using PrimeScript RT reagent Kit (Takara, Dalian, China). PCR amplification was performed on an StepOne Plus real time PCR system (Applied Biosystems, Foster City, CA) using the SYBR Green Master Mix (Applied Biosystems, Foster City, CA). All experiments were performed in triplicate, and the relative levels of assayed mRNAs were calculated with the delta–delta CT method using ACTIN expressions as endogenous control, and normalized to non-treated control. […]
(§4) delta‒delta CT method using lamivudine expressions as positive control, and normalized to non-treated control.
(§5) 9. Assay for protective effects on skin barrier functions in in vitro
(§6) HaCaT cells were cultured with DMEM in 6-well plate at 1×10^5 cells/well for 24 h, then treated with 20, 10, 5 µM of compounds 1‒8 for 72 h. […]
(§7) All experiments were performed in triplicate, and the relative levels of assayed mRNAs were calculated with the delta‒delta CT method using ACTIN expressions as endogenous control, and normalized to non-treated control.

Series [6] is described as follows: Cell viability of RAW264.7 macrophages (MTT method). The format is cell-based, mouse. The following applies: mouse. Here is the method:
as §1, §2

The test system of series [7] is caspase-14. As to the kind of experiment: Expression of caspase-14 in HaCaT cells (qRT-PCR). The format is cell-based. The note with it: HaCaT cells, 20, 10, 5 μM, 72 h, dose dependent. Here is the method: as §3, §4, §5, §6, §7
Series [8] has as its system HaCaT cells. Put plainly: Protection against UVB-induced cell damage in HaCaT cells (MTT assay). The format is cell-based. The following applies: Homo sapiens, HaCaT, light or radiation study, 24 h, read-out: cell viability after UVB irradiation. Here is the method: HaCaT cells were seeded at 5 × 10^5 cells per well in 6-well plates and incubated under starvation conditions for 24 h using serum-free MEM. HaCaT cells were exposed to UVB irradiation (UVB lamp: SUV-1000, Sigma-China) at a dose of 30 mJ/cm^2. After UVB irradiation, DMEM medium containing 1 (20 μM) or epigallocatechin gallate (20 μM) was added and the cells were incubated for 24 h, and then the MTT assay was performed.

Series [9] in a line: Cytotoxic activity toward tumor cell line SMMC7721. The note with it: human, SMMC7721 tumor cells. The series is classed as cell-based.
Series [10] can be described thus: Cytotoxic activity toward tumor cell line A549. The series is classed as cell-based. The following applies: human, A549 tumor cells.

Like-named read-outs stand apart in the source and are kept apart here. Where only a bound is given, the exact number is not on record here.

On to `C=C1C2(C)CC3C4(C)C=CC(=O)OC(C)(C)C4CCC3(C)C13C(=O)OC(C)C3(O)C2=O` [Compound 3, (5aS, 5bS, 7R, 8aR, 9R, 11aR, 11bS, 13aS)-8a-hydroxy-1,1,5a, 7,9,11b-hexamethyl-14-methylene-5a,5b,6,7,8a,9,11b,12,13,13a-decahydro-1H,11H-7, 11a-methanofuro[3″,4″:3′,4′]cyclohepta[1′,2′:3,4]benzo[1,2-c]oxepine-3,8,11-trione], for which the “NO inhibition % (50 μM)” value in [1] (50 μM, LPS 1 μg/ml, 24 h) came to 65%. Further, the IC50 in series [1] (LPS 1 μg/ml, 24 h, Table 3, read-out: IC50 (μM) NO) stood at 33.8 ± 3.13 µM. The “inhibition toward NO production (in words)” value in [1] (LPS-induced RAW 264.7 macrophages) was “moderate inhibition”. For the same compound, the CC50 in [2] is > 100 µM. Also, the “inhibitory rate of DNA expression of the HBV virus” value in series [3] was 25%.

Take `C=C1[C@@]2(C)C[C@H]3[C@]4(C)[C@H](O)[C@@H]5C[C@@](C)(OC5=O)[C@H]4CC[C@]3(C)[C@]1(C(=O)OC)C(=O)[C@@](C)(O)C2=O` [Compound 1, methyl (1R, 2S, 5R, 5aS, 7aS, 8R, 10S, 12R, 13aR, 13bS)-1, 10-dihydroxy-5,7a,10,12,13b-pentamethyl-14-methylene-3,9,11-trioxotetradecahydro-2,5:8,12-dimethanocycloocta[3,4]benzo[1,2-c]oxepine-8(5H)-carboxylate]: the IC50 is > 10 µM in series [4]; > 50 µM in [1] (Mus musculus, RAW264.7, read-out: IC50 (M), 50% inhibitory concentration); > 10 µM in series [9]; > 10 µM in series [10]. Moreover, the expression of filaggrin entry in [5] was “significantly stimulated”. In addition, the CC50 at 24 h in series [6] (RAW264.7, MTT, Table 3, read-out: CC50 (μM) Cytotoxicity) is > 100 µM; in [6] (Table S9 of the supplement, read-out: CC50 (M), 50% cytotoxic concentration), > 50 µM. Moreover, the “expression of caspase-14” value in [7] was “significantly stimulated”. Further, in series [8], the viability at 20 µM was determined as 77%.
